# Assay results published in patent US20130143297A1, “STABILIZED LIQUID TENSIDE P[…]” (Henkel AG & Co. KGaA, priority 2010, published 2013).
# Test system: variant F49 of the protease from Bacillus lentus
# Assay: Residual proteolytic activity after storage in liquid washing agent (suc-AAPF-pNA)
# Type: biochemical
# Details: 13 days at 30° C., initial activity = 100%
# Text: A liquid washing agent of the following composition served as a baseline washing agent formulation (all indications in percent by weight): 0.3 to 0.5% xanthan, 0.2 to 0.4% antifoaming agent, 6 to 7% glycerol, 0.3 to 0.5% ethanol, 4 to 7% FAEOS (fatty alcohol ether sulfate), 24 to 28% nonionic surfactants, 1 to 2% sodium citrate (dihydrate), 2 to 4% soda, 14 to 16% coconut fatty acids, 0.5% HEDP (1-hydroxyethane-(1,1-diphosphonic acid)), 0 to 0.4% PVP (polyvinylpyrrolidone), 0 to 0.05% optical brightener, 0 to 0.001% dye, remainder demineralized water.
# The aminophthalic acid 4-aminophthalic acid (Alfa Aesar) was incorporated into this formulation as the component stabilizing the hydrolytic enzyme, as indicated below (see Table 1, indications in this regard in wt %). Comparison formulations that contained either boric acid as an enzyme stabilizer, or no enzyme stabilizer, served as controls. The protease used was variant F49 of the protease from Bacillus lentus in accordance with WO 95/23221 (quantity used: 1 wt % active substance).
# After storage, the respective residual proteolytic activity was determined by way of the release of the para-nitroaniline (pNA) chromophore from the suc-L-Ala-L-Ala-L-Pro-L-Phe-p-nitroanilide substrate (suc-AAPF-pNA). The protease cleaves the substrate and releases pNA. The release of pNA causes an increase in extinction at 410 nm, the time course of which is an indication of enzymatic activity (see Del Mar et al., 1979). Measurement occurred at a temperature of 25° C., at pH 8.6 and at a wavelength of 410 nm. The measurement time was 5 min, with a measurement interval from 20 s to 60 s. The proteolytic activity values obtained are indicated in Table 1 below, based on an initial activity of 100% when storage began.
# [1] = 1.0 wt % stabilizer in baseline liquid washing agent
Structure (SMILES),residual proteolytic activity after storage [1] [%],residual proteolytic activity after storage (0.1 wt % stabilizer in baseline liquid washing agent) [%],residual proteolytic activity after storage (0.5 wt % stabilizer in baseline liquid washing agent) [%],residual proteolytic activity after storage (2.0 wt % stabilizer in baseline liquid washing agent) [%]
"OB(O)O [boric acid, reference compound]",74.9,,,
Nc1ccc(C(=O)O)c(C(=O)O)c1 [4-aminophthalic acid],40.8,28.3,33.3,50.0
